Source: patent US20070191396A1, “Fungicidal mixtures” (BASF Aktiengesellschaft, priority 2004, published 2007)

Test system: Pyrenophora teres
Assay: Activity against net blotch of barley caused by Pyrenophora teres, 1 day protective application
Type: in vivo
Conditions: individual active compound, barley seedlings "Hanna", assessed after 6 days
Description: The active compounds, separately, were prepared as a stock solution comprising 25 mg of active compound which was made up to 10 ml using a mixture of acetone and/or DMSO and the emulsifier Uniperol® EL (wetting agent having an emulsifying and dispersing action based on ethoxylated alkylphenols) in a ratio by volume of solvent/emulsifier of 99:1. The mixture was then made up to 100 ml with water. The active compounds or mixtures were diluted or mixed with water to the stated concentration.
Activity against net blotch of barley caused by Pyrenophora teres, 1 day protective application
Leaves of potted barley seedlings of the “Hanna” cultivar were sprayed to runoff point with an aqueous suspension having the concentration of active compound stated below. 24 hours after the spray coating had dried on, the test plants were inoculated with an aqueous spore suspension of Pyrenophora [syn. Drechslera] teres, the net blotch pathogen. […] After 6 days, the extent of the development of the disease was determined visually in % infection of the total leaf area.
The visually determined percentages of infected leaf areas were converted into efficacies in % of the untreated control:
The efficacy (E) is calculated as follows using Abbot's formula: E=(1−[…] )·100 α corresponds to the fungal infection of the treated plants in % and β corresponds to the fungal infection of the untreated (control) plants in % […]

For `CC1CCN(c2c(-c3c(F)cc(F)cc3F)c(Cl)nc3ncnn23)CC1` [I, 5-chloro-7-(4-methylpiperidin-1-yl)-6-(2,4,6-trifluorophenyl)[1,2,4]triazolo[1,5-a]pyrimidine], the “Efficacy in % of the untreated control” value (1.25 ppm in the spray liquor) was 55 % of the untreated control and the “Efficacy in % of the untreated control” value (5 ppm in the spray liquor) was 78 % of the untreated control.
